# In paper PMC13267291, “In vivo functional profiling and structural characterization of the human GLP1R A316T variant” (Science Advances, 2026):
# Legend:
# [1] = tested on: SNAP/FLAG-hGLP1R^A316T versus ^WT; assay: High content microscopy GLP-1R internalization assay; format: cell-based, rat; settings: INS-1 832/3 sublines; 5-60 min; AUC; n = 3; Fig. 7G
# Protocol: INS-1 832/3 Glp1r^−/− SNAP/FLAG-hGLP1R^WT or ^A316T cells were seeded onto poly-D-lysine–coated black 96-well plates for 24 hours before the assay. Cells were labeled for 30 min with 1 μM SNAP surface cleavable BG-SS-649 probe at 37°C and washed once with HBSS before treatment with GLP-1RA or vehicle for 60, 30, 15, or 5 min at 37°C in complete medium. Cells were then washed with cold HBSS, and subsequent steps were carried out at 4°C. The cell-impermeable reducing agent Mesna {100 mM in alkaline tris-NaCl-EDTA (TNE) buffer [20 mM tris-HCl, 1 mM EDTA, and 150 mM NaCl (pH 8.6)]} or alkaline TNE buffer without Mesna was applied for 5 min to cleave BG-SS-649 probe left at the cell surface and then washed with HBSS. […] Internalized GLP-1R, indicated by cell-associated fluorescence, was analyzed after flat-field correction of fluorescent images using the BaSiC plugin ([96]), segmentation of cell-containing regions from phase contrast images using Phantast ([97]), and fluorescence intensity quantification. The percentage of internalized receptor was calculated as follows F+Me(tx)/F−Me(tx)−F+Me(t0)/F−Me(t0)/1−F+Me(t0)/F−Me(t0) where F+Me and F−Me are mean fluorescence intensities ± Mesna at times tx (5, 15, 30, or 60 min) or t0 (0 min). […]
# [2] = tested on: SNAP/FLAG-hGLP1R^A316T versus ^WT; assay: GLP-1R conformational ECD opening TR-FRET assay; format: cell-based, human; settings: serial doses, 30 min; n = 5; Fig. 8E
# Protocol: Nb37 bystander NanoBiT assays
# INS-1 832/3 Glp1r-/- cells were seeded in 6-well plates and co-transfected with the following plasmids:
# 200 ng pSNAP/FLAG-hGLP1RWT or A316T, 500 ng Gαs (human, short isoform), 500 ng Gβ1 (human), 500 ng Gγ2 (human), 100 ng RIC8B (human, isoform 2), and either 100 ng LgBiT-CAAX (KRAS CAAX motif N-terminally fused with LgBiT) or 500 ng Endofin-LgBiT (Endofin FYVE domain C-terminally fused with LgBiT), plus 100 ng (plasma membrane assay) or 500 ng (endosomal assay) SmBiT-Nb37 [Nb37 cDNA synthesised by GenScript C- terminally fused to SmBiT with a 15 amino acid flexible linker (123) ] and adjusted for total DNA with pcDNA3.1 for the LgBiT-CAAX transfection. 24 hours after transfection, cells were exposed to NanoGlo Live Cell Reagent (Promega) with furimazine (1:20 dilution) and bioluminescence read in a Flexstation 3 plate reader for 8 min before and 30 min after stimulation by […]
# AUCs were calculated for each agonist concentration and fitted to log(agonist) versus response four-parameter curves using GraphPad Prism 10.1.2, with logEC50 (potency) and Emax (efficacy) calculated for each replicate dose response curve. Baseline endosomal over plasma membrane bioluminescence ratios were also calculated.
# GLP- 1R conformational ECD opening time resolved-fluorescence resonance energy transfer (TR- […]
# signal serially monitored for 30 min. […]
# [3] = tested on: hGLP1R^A316T/A316T versus hGLP1R^+/+ mice; assay: Plasma insulin 10 min into IPGTT, chow-fed mice; format: in vivo, mouse; settings: chow diet
# Protocol: To measure insulin release during IPGTTs, 10 μl of blood samples were collected via tail venipuncture 10 min after a glucose challenge.
# Plasma was collected into potassium EDTA cuvettes (Microvette CB 300, 16.444.100, Starstedt) and stored on ice before centrifugation at 8,000g for 10 min at 4°C to collect plasma supernatants in fresh Eppendorf tubes kept at −80°C until further analysis.
Substance,A316T GLP-1R internalization versus WT [1],"TR-FRET (ECD opening) in response to agonist, A316T versus WT [2]","Plasma insulin increase in response to agonist, hGLP1R^A316T/A316T mice ([3]; 10 min into IPGTT, relative to effect in hGLP1R^+/+, Fig. 1L,M)","Plasma insulin levels in response to agonist, hGLP1R^+/+ mice ([3]; 10 min into IPGTT, versus vehicle, Fig. 1L,M)","Agonist-dependent plasma insulin rises (vehicle fold changes), A316T/A316T versus +/+ ([3]; significant at the 6-hour time point, Fig. 1N)"
GLP-1(7-36)NH2,significantly increased,significantly increased,,,
exendin-4,,,attenuated,increased,reduced
